Data: patent publication US7090853B2, “Noscapine derivatives as adjuvant compositions and methods of use thereof” (Emory University, priority 1999, dated 2006)
Marks after values point to notes of the source that are not given here.

Tested on: HL-60 cells
Test: Apoptosis of HL-60 cells, DAPI staining of nuclear chromatin
Assay type: cell-based
Settings: for Apoptic Cell Percentage: 24 hours
Procedure: Morphological changes in the nuclear chromatin of HL-60 cells undergoing apoptosis were detected by staining with 4′,6-diamidino-2-phenylindole (DAPI). In brief, 0.5×10^6 to 3×10^6 cells were fixed with 4% glutaraledebyde, 0.2% Triton x-100, in PBS and incubated at room temperature for 10 min., then centrifuged at 1000×g for 10 min., resuspended in 20 μl 0.1% DAPI ethanol. Following 15 min, incubation at room temperature, at 10 μl aliquot was placed on a glass slide, and 400 cells per slide were scored for the incidence of apoptotic chromatin changes with a fluorescence microscope.

COc1ccc2c(c1OC)C(=O)O[C@@H]2[C@H]1c2c(cc3c(c2OC)OCO3)CCN1C [Noscapine]
Apoptic Cell Percentage (20 μM in DMSO, two trials, result for each trial shown): 30.17† %
Apoptic Cell Percentage (50 μM in DMSO): 27%
Initiation of apoptosis (DAPI staining): initiate apoptosis
